“Also recorded” adds a separate entry of the source. Where a SMILES comes first, the peptide text is derived from it. The star is where a group is joined. Cbz = O=C(OCc1ccccc1)*; CH2F = FC*
Legend:
DR4-induced apoptosis = assay: Cell death assay: DR4-induced apoptosis in cells transiently transfected with a DR4 expressing construct, with death protease inhibitors; format: cell-based, human; conditions: FIG. 5C
[1] = test system: DR4-induced apoptosis in MCF7 human breast carcinoma cells and 293 human embryonic kidney cells; assay: DR4-induced apoptosis cell death assay (transient transfection, X-Gal staining); format: cell-based; conditions: z-VAD-fmk added at 10 μM, 5 hrs after transfection; cells stained 32 hours following transfection
Description: Overexpression of Fas/APO-1 and TNFR-1 in mammalian cells mimics receptor activation (M. Muzio, et al., Cell 85, 817-827 (1996); M. P. Boldin, et al, Cell 85, 803-815 (1996)). Thus, this system was utilized to study the functional role of DR4. Transient expression of DR4 in MCF7 human breast carcinoma cells and 293 human embryonic kidney cells induced rapid apoptosis.
Cell death assays are performed essentially as previously described (A. M. Chinnaiyan, et al., Cell 81, 505-12 (1995); M. P. Boldin, et al, J Biol Chem 270, 7795-8 (1995); F. C. Kischkel, et al., EMBO 14, 5579-5588 (1995); A. M. Chinnaiyan, et al., J Biol Chem 271, 4961-4965 (1996)). Briefly, MCF-7 human breast carcinoma clonal cell lines stably transfected with either vector alone or a CrmA expression construct (M. Tewari, et al., J Biol Chem 270, 3255-60 (1995)), are transiently transfected with pCMV-DR4-galactosidase (or pCMV-DR4-galactosidase (lacking the death domain)) in the presence of a ten-fold excess of pcDNA3 expression constructs encoding the indicated proteins using lipofectamine (GIBCO-BRL). 293 cells are likewise transfected using the CaPO4 method. The ICE family inhibitor z-VAD-fmk (Enzyme Systems Products, Dublin, Calif.) is added to the cells at a concentration of 10 μM, 5 hrs after transfection. […]

[2] = test system: TRAIL-induced apoptosis in MCF7 cells; assay: Blocking of TRAIL-induced apoptosis in MCF7 cells by receptor-Fc fusions; format: cell-based, human; conditions: FIG. 6A

Compound	Blocking of DR4-induced apoptosis (DR4-induced apoptosis)	Blocking of DR4-induced apoptosis (DR4-induced apoptosis; listed as z-VAD-fink)	DR4-induced apoptosis [1]	Blocking of the ability of TRAIL to induce apoptosis [2]
COC(=O)C[C@H](NC(=O)[C@H](C)NC(=O)[C@@H](NC(=O)OCc1ccccc1)C(C)C)C(=O)CF [z-VAD-fmk] (Cbz-Val-Ala-Asp(OMe)-CH2F)	inhibit the apoptotic action of DR4; also recorded: efficiently blocked	blocked	blocked	
CD95-Fc: extracellular domain of CD-95 expressed as Fc fusion				not influenced

— patent US8329179B2, “Death domain containing receptor 4 antibodies and methods” (Human Genome Sciences, Inc., priority 1997, dated 2012)
